For this test, the system named is BALB/cJ mice, ADJ-PC-6 ip tumor, median survival T/C. The experiment in a line: NCI In Vivo Anticancer Drug Screen. Data for tumor model ADJ-PC-6 (intraperitoneal) in BALB/cJ mice. Conditions: endpoint: median survival time, higher = longer survival. On the procedure: The antitumor activity of compounds was measured in mice bearing transplantable tumors. Survival or tumor size were measured and the results are expressed as the measurement made in the treated group (T) divided by the measurement made in the vehicle treated control group (C). The tumor model used in this assay is ADJ-PC-6 (intraperitoneal) in BALB/cJ mice

The mark [1] stands for this setting: dose: 2.0 mg/kg/injection, schedule: Q04DX003 (ip), vehicle: saline.
The mark [2] stands for this setting: dose: 8.0 mg/kg/injection, schedule: Q04DX003 (ip), vehicle: saline.
Where [3] appears, read: dose: 10.0 mg/kg/injection, schedule: Q04DX003 (ip), vehicle: saline.
Where [4] appears, read: dose: 20.0 mg/kg/injection, schedule: Q04DX003 (ip), vehicle: saline.
[5] abbreviates: dose: 40.0 mg/kg/injection, schedule: Q04DX003 (ip), vehicle: saline.

SMILES strings stand for the structures. Several values for one entry are separate records, joined by “and”; a condition that tells them apart may be missing. Equal values may be shown once. Toxic doses and inconclusive results are not listed.

As for `COc1cc2c(c(OC)c1OC)-c1ccc(OC)c(=O)cc1[C@@H](NC(C)=O)CC2`, the T/C was 99 % of control (dose: 0.05 mg/kg/injection, schedule: Q01DX009 (ip), vehicle: Klucel (hydroxypropylcellulose) (HPC)); 88 % of control (dose: 0.1 mg/kg/injection, schedule: Q01DX009 (ip), vehicle: Klucel (hydroxypropylcellulose) (HPC)); 102 % of control (dose: 0.2 mg/kg/injection, schedule: Q01DX009 (ip), vehicle: Klucel (hydroxypropylcellulose) (HPC)); 108 % of control (dose: 0.4 mg/kg/injection, schedule: Q01DX009 (ip), vehicle: Klucel (hydroxypropylcellulose) (HPC)).

Take `CN(C)CNC(=O)c1ccccc1`: the T/C is, setting by setting: (dose: 20.0 mg/kg/injection, schedule: Q01DX009 (ip), vehicle: water) 102 % of control; (dose: 40.0 mg/kg/injection, schedule: Q01DX009 (ip), vehicle: water) 102 % of control; (dose: 80.0 mg/kg/injection, schedule: Q01DX009 (ip), vehicle: water) 115 % of control; (dose: 160.0 mg/kg/injection, schedule: Q01DX009 (ip), vehicle: water) 107 % of control.

Take `COc1c(O)c2c(c3cc(C(=O)N4CCc5c4c(O)c(OC)c4[nH]c(C(=O)N6CC7CC78C6=CC(=O)c6[nH]cc(C)c68)cc54)[nH]c13)CCN2C(N)=O` (stereo not drawn): the T/C (dose: 25.0 micrograms/kg/injection, schedule: Q04DX003 (ip), vehicle: DMSO) was 95 % of control; the T/C (dose: 50.0 micrograms/kg/injection, schedule: Q04DX003 (ip), vehicle: DMSO) was 96 % of control; the T/C (dose: 100.0 micrograms/kg/injection, schedule: Q04DX003 (ip), vehicle: DMSO) was 103 % of control; the T/C (dose: 200.0 micrograms/kg/injection, schedule: Q04DX003 (ip), vehicle: DMSO) is 100 % of control.

As to `CC[C@]1(O)C[C@H]2CN(CCc3c([nH]c4ccccc34)[C@@](C(=O)OC)(c3cc4c(cc3OC)N(C=O)[C@H]3[C@@](O)(C(=O)OC)[C@H](OC(C)=O)[C@]5(CC)C=CCN6CC[C@]43[C@@H]65)C2)C1`, the T/C by setting is: (dose: 0.13 mg/kg/injection, schedule: Q04DX003 (ip), vehicle: saline) 99 % of control and 110 % of control; (dose: 0.25 mg/kg/injection, schedule: Q04DX003 (ip), vehicle: saline) 101 % of control and 110 % of control; (dose: 0.5 mg/kg/injection, schedule: Q04DX003 (ip), vehicle: saline) 97 % of control and 102 % of control; (dose: 1.0 mg/kg/injection, schedule: Q04DX003 (ip), vehicle: saline) 106 % of control and 121 % of control; under setting [1], 122 % of control.

Regarding `[Cl][Pt+2][Cl].[NH-]C1CCCC1.[NH2-]`, the T/C was 204 % of control (dose: 1.04 mg/kg/injection, schedule: Q04DX003 (ip), vehicle: saline); 254 % of control (dose: 1.73 mg/kg/injection, schedule: Q04DX003 (ip), vehicle: saline); 385 % of control (dose: 2.88 mg/kg/injection, schedule: Q04DX003 (ip), vehicle: saline); 445 % of control (dose: 4.8 mg/kg/injection, schedule: Q04DX003 (ip), vehicle: saline); 451 % of control under setting [2].

Consider `CC1=C(C)C(=O)O[C@@H]([C@](C)(O)[C@]2(O)CC[C@@]3(O)[C@@H]4C[C@H]5O[C@]56[C@@H](O)C=CC(=O)[C@]6(C)[C@H]4CC[C@]23C)C1`, for which the T/C runs as follows: (dose: 1.0 mg/kg/injection, schedule: Q01DX009 (ip), vehicle: saline + alcohol) 111 % of control; (dose: 1.0 mg/kg/injection, schedule: Q01DX009 (ip), vehicle: saline with Tween-80) 104 % of control; (dose: 2.0 mg/kg/injection, schedule: Q01DX009 (ip), vehicle: saline + alcohol) 96 % of control; (dose: 2.0 mg/kg/injection, schedule: Q01DX009 (ip), vehicle: saline with Tween-80) 107 % of control; (dose: 4.0 mg/kg/injection, schedule: Q01DX009 (ip), vehicle: saline + alcohol) 98 % of control; (dose: 4.0 mg/kg/injection, schedule: Q01DX009 (ip), vehicle: saline with Tween-80) 97 % of control. Further, the T/C reads like this: (dose: 8.0 mg/kg/injection, schedule: Q01DX009 (ip), vehicle: saline + alcohol) 114 % of control; (dose: 8.0 mg/kg/injection, schedule: Q01DX009 (ip), vehicle: saline with Tween-80) 106 % of control.

Regarding `Cc1ncc(CO)c(CO)c1O`, the T/C is, setting by setting: (dose: 50.0 mg/kg/injection, schedule: Q01DX014 (sc), vehicle: saline) 115 % of control; (dose: 100.0 mg/kg/injection, schedule: Q01DX014 (sc), vehicle: saline) 99 % of control; (dose: 200.0 mg/kg/injection, schedule: Q01DX014 (sc), vehicle: saline) 120 % of control; (dose: 400.0 mg/kg/injection, schedule: Q01DX014 (sc), vehicle: saline) 117 % of control.

Take `O=c1[nH]cc(F)c(=O)[nH]1`: the T/C was 150 % of control and 471 % of control (dose: 7.5 mg/kg/injection, schedule: Q04DX003 (ip), vehicle: saline); 173 % of control and 308 % of control (dose: 15.0 mg/kg/injection, schedule: Q04DX003 (ip), vehicle: saline); 150 % of control and 273 % of control and 471 % of control (dose: 30.0 mg/kg/injection, schedule: Q04DX003 (ip), vehicle: saline); 193 % of control and 335 % of control and 471 % of control (dose: 60.0 mg/kg/injection, schedule: Q04DX003 (ip), vehicle: saline).

As to `CC(=O)N(C)c1ccc(Nc2cc(C)[nH]c3ccc4ncnc4c23)cc1`, the T/C under setting [3] was 100 % of control, the T/C under setting [4] was 162 % of control and the T/C under setting [5] is 107 % of control.

As to `CC1CCC(NC(=O)N(CCCl)N=O)CC1` (stereo not drawn), the T/C by setting is: (dose: 1.25 mg/kg/injection, schedule: Q04DX003 (ip), vehicle: other) 120 % of control; (dose: 2.5 mg/kg/injection, schedule: Q04DX003 (ip), vehicle: other) 182 % of control and 183 % of control; (dose: 5.0 mg/kg/injection, schedule: Q04DX003 (ip), vehicle: other) 158 % of control and 355 % of control; (dose: 10.0 mg/kg/injection, schedule: Q04DX003 (ip), vehicle: other) 337 % of control and 355 % of control; (dose: 20.0 mg/kg/injection, schedule: Q04DX003 (ip), vehicle: other) 272 % of control and 297 % of control.

As for `Nc1ncn(C2OC(CO)C(O)C2O)c(=O)n1` (stereo not drawn), the T/C is, setting by setting: under setting [1], 120 % of control; under setting [2], 157 % of control; under setting [3], 185 % of control; under setting [4], 219 % of control; (dose: 32.0 mg/kg/injection, schedule: Q04DX003 (ip), vehicle: saline) 235 % of control.

`O=P1(N(CCCl)CCCl)NCCCO1` (stereo not drawn): the T/C under setting [3] was 99 % of control; the T/C (dose: 10.0 mg/kg/injection, schedule: Q04DX003 (iv), vehicle: saline) is 88 % of control; the T/C (dose: 19.4 mg/kg/injection, schedule: Q04DX003 (ip), vehicle: saline) was 108 % of control; the T/C under setting [4] was 109 % of control and 110 % of control; the T/C (dose: 20.0 mg/kg/injection, schedule: Q04DX003 (iv), vehicle: saline) was 95 % of control; the T/C (dose: 32.4 mg/kg/injection, schedule: Q04DX003 (ip), vehicle: saline) was 166 % of control. The T/C was 173 % of control and 178 % of control under setting [5]; 189 % of control (dose: 54.0 mg/kg/injection, schedule: Q04DX003 (ip), vehicle: saline); 168 % of control and 335 % of control (dose: 80.0 mg/kg/injection, schedule: Q04DX003 (ip), vehicle: saline); 194 % of control (dose: 80.0 mg/kg/injection, schedule: Q04DX003 (iv), vehicle: saline); 267 % of control (dose: 90.0 mg/kg/injection, schedule: Q04DX003 (ip), vehicle: saline); 340 % of control (dose: 150.0 mg/kg/injection, schedule: Q04DX003 (ip), vehicle: saline). Further, the T/C was 194 % of control and 335 % of control (dose: 160.0 mg/kg/injection, schedule: Q04DX003 (ip), vehicle: saline); 194 % of control (dose: 160.0 mg/kg/injection, schedule: Q04DX003 (iv), vehicle: saline).

On to `CCN(CC)CCNc1ccc(C)c2sc3ccccc3c(=O)c12`, for which the T/C by setting is: (dose: 12.5 mg/kg/injection, schedule: Q04DX003 (ip), vehicle: water) 103 % of control; (dose: 50.0 mg/kg/injection, schedule: Q04DX003 (ip), vehicle: water) 113 % of control; (dose: 100.0 mg/kg/injection, schedule: Q04DX003 (ip), vehicle: water) 91 % of control.

These data come from PubChem BioAssay AID184 (DTP/NCI, 2004).
